Laboratory results reported in the NIST ThermoML archive (doi:10.1021/acs.jced.8b00554).
Numbers after ± are expanded uncertainties.

Experiment: xn = mol fraction of the nth substance listed
Details: Liquid, Vibrating tube method

## CCCCCCCCC [nonane] + CCCO
323.15 K, 12010 kPa, x2 = 0.8941
  mass density: 768.14 ± 4.9 kg/m3
323.15 K, 12020 kPa, x2 = 0.1231
  mass density: 706.6 ± 4.5 kg/m3
323.15 K, 12020 kPa, x2 = 0.2315
  mass density: 710.98 ± 4.6 kg/m3
323.15 K, 12020 kPa, x2 = 0.4272
  mass density: 720.79 ± 4.6 kg/m3
323.15 K, 13000 kPa, x2 = 0.1231
  mass density: 707.48 ± 4.5 kg/m3
323.15 K, 13000 kPa, x2 = 0.4272
  mass density: 721.68 ± 4.6 kg/m3
323.15 K, 13000 kPa, x2 = 0.7021
  mass density: 743.81 ± 4.8 kg/m3
323.15 K, 13010 kPa, x2 = 0.2315
  mass density: 711.85 ± 4.6 kg/m3
323.15 K, 13010 kPa, x2 = 0.8941
  mass density: 768.99 ± 4.9 kg/m3
323.15 K, 13020 kPa, x2 = 0.3229
  mass density: 715.95 ± 4.6 kg/m3
323.15 K, 14000 kPa, x2 = 0.1231
  mass density: 708.35 ± 4.5 kg/m3
323.15 K, 14000 kPa, x2 = 0.2315
  mass density: 712.73 ± 4.6 kg/m3
323.15 K, 14000 kPa, x2 = 0.8941
  mass density: 769.85 ± 4.9 kg/m3
323.15 K, 14010 kPa, x2 = 0.4272
  mass density: 722.55 ± 4.6 kg/m3
323.15 K, 14020 kPa, x2 = 0.3229
  mass density: 716.82 ± 4.6 kg/m3
323.15 K, 14020 kPa, x2 = 0.7021
  mass density: 744.68 ± 4.8 kg/m3
323.15 K, 15000 kPa, x2 = 0.1231
  mass density: 709.2 ± 4.5 kg/m3
323.15 K, 15000 kPa, x2 = 0.3229
  mass density: 717.67 ± 4.6 kg/m3
323.15 K, 15010 kPa, x2 = 0.7021
  mass density: 745.54 ± 4.8 kg/m3
323.15 K, 15010 kPa, x2 = 0.8941
  mass density: 770.68 ± 4.9 kg/m3
323.15 K, 15020 kPa, x2 = 0.2315
  mass density: 713.58 ± 4.6 kg/m3
323.15 K, 15020 kPa, x2 = 0.4272
  mass density: 723.42 ± 4.6 kg/m3
323.15 K, 16010 kPa, x2 = 0.1231
  mass density: 710.02 ± 4.5 kg/m3
323.15 K, 16010 kPa, x2 = 0.8941
  mass density: 771.51 ± 4.9 kg/m3
323.15 K, 16020 kPa, x2 = 0.2315
  mass density: 714.42 ± 4.6 kg/m3
323.15 K, 16020 kPa, x2 = 0.3229
  mass density: 718.52 ± 4.6 kg/m3
323.15 K, 16020 kPa, x2 = 0.4272
  mass density: 724.26 ± 4.6 kg/m3
323.15 K, 16020 kPa, x2 = 0.7021
  mass density: 746.38 ± 4.8 kg/m3
323.15 K, 17000 kPa, x2 = 0.2315
  mass density: 715.27 ± 4.6 kg/m3
323.15 K, 17000 kPa, x2 = 0.3229
  mass density: 719.35 ± 4.6 kg/m3
323.15 K, 17000 kPa, x2 = 0.8941
  mass density: 772.34 ± 5 kg/m3
323.15 K, 17010 kPa, x2 = 0.4272
  mass density: 725.1 ± 4.7 kg/m3
323.15 K, 17020 kPa, x2 = 0.1231
  mass density: 710.86 ± 4.6 kg/m3
323.15 K, 17020 kPa, x2 = 0.7021
  mass density: 747.22 ± 4.8 kg/m3
323.15 K, 18000 kPa, x2 = 0.1231
  mass density: 711.67 ± 4.6 kg/m3
323.15 K, 18010 kPa, x2 = 0.2315
  mass density: 716.08 ± 4.6 kg/m3
323.15 K, 18010 kPa, x2 = 0.3229
  mass density: 720.19 ± 4.6 kg/m3
323.15 K, 18010 kPa, x2 = 0.4272
  mass density: 725.91 ± 4.7 kg/m3
323.15 K, 18010 kPa, x2 = 0.7021
  mass density: 748.04 ± 4.8 kg/m3
323.15 K, 18010 kPa, x2 = 0.8941
  mass density: 773.16 ± 5 kg/m3
323.15 K, 19010 kPa, x2 = 0.1231
  mass density: 712.48 ± 4.6 kg/m3
323.15 K, 19010 kPa, x2 = 0.2315
  mass density: 716.87 ± 4.6 kg/m3
323.15 K, 19010 kPa, x2 = 0.3229
  mass density: 720.99 ± 4.6 kg/m3
323.15 K, 19010 kPa, x2 = 0.4272
  mass density: 726.74 ± 4.7 kg/m3
323.15 K, 19020 kPa, x2 = 0.7021
  mass density: 748.85 ± 4.8 kg/m3
323.15 K, 19020 kPa, x2 = 0.8941
  mass density: 773.95 ± 5 kg/m3
323.15 K, 20000 kPa, x2 = 0.4272
  mass density: 727.54 ± 4.7 kg/m3
323.15 K, 20010 kPa, x2 = 0.2315
  mass density: 717.66 ± 4.6 kg/m3
323.15 K, 20010 kPa, x2 = 0.8941
  mass density: 774.74 ± 5 kg/m3
323.15 K, 20020 kPa, x2 = 0.1231
  mass density: 713.24 ± 4.6 kg/m3
323.15 K, 20020 kPa, x2 = 0.3229
  mass density: 721.77 ± 4.6 kg/m3
323.15 K, 20020 kPa, x2 = 0.7021
  mass density: 749.67 ± 4.8 kg/m3
333.15 K, 100 kPa, x2 = 0.1231
  mass density: 686.98 ± 4.4 kg/m3
333.15 K, 100 kPa, x2 = 0.2315
  mass density: 690.52 ± 4.4 kg/m3
333.15 K, 100 kPa, x2 = 0.3229
  mass density: 694.34 ± 4.5 kg/m3
333.15 K, 100 kPa, x2 = 0.4272
  mass density: 699.84 ± 4.5 kg/m3
333.15 K, 100 kPa, x2 = 0.7021
  mass density: 721.88 ± 4.6 kg/m3
333.15 K, 100 kPa, x2 = 0.8941
  mass density: 747.76 ± 4.8 kg/m3
333.15 K, 1000 kPa, x2 = 0.8941
  mass density: 748.19 ± 4.8 kg/m3
333.15 K, 1010 kPa, x2 = 0.2315
  mass density: 691.2 ± 4.4 kg/m3
333.15 K, 1010 kPa, x2 = 0.3229
  mass density: 694.86 ± 4.5 kg/m3
333.15 K, 1010 kPa, x2 = 0.4272
  mass density: 700.34 ± 4.5 kg/m3
333.15 K, 1010 kPa, x2 = 0.7021
  mass density: 722.39 ± 4.6 kg/m3
333.15 K, 1020 kPa, x2 = 0.1231
  mass density: 687.08 ± 4.4 kg/m3
333.15 K, 2000 kPa, x2 = 0.3229
  mass density: 695.92 ± 4.5 kg/m3
333.15 K, 2000 kPa, x2 = 0.4272
  mass density: 701.38 ± 4.5 kg/m3
333.15 K, 2010 kPa, x2 = 0.1231
  mass density: 688.14 ± 4.4 kg/m3
333.15 K, 2010 kPa, x2 = 0.2315
  mass density: 692.25 ± 4.4 kg/m3
333.15 K, 2010 kPa, x2 = 0.8941
  mass density: 749.18 ± 4.8 kg/m3
333.15 K, 2020 kPa, x2 = 0.7021
  mass density: 723.42 ± 4.6 kg/m3
333.15 K, 3000 kPa, x2 = 0.1231
  mass density: 689.17 ± 4.4 kg/m3
333.15 K, 3000 kPa, x2 = 0.2315
  mass density: 693.28 ± 4.4 kg/m3
333.15 K, 3010 kPa, x2 = 0.4272
  mass density: 702.44 ± 4.5 kg/m3
333.15 K, 3010 kPa, x2 = 0.8941
  mass density: 750.17 ± 4.8 kg/m3
333.15 K, 3020 kPa, x2 = 0.3229
  mass density: 696.96 ± 4.5 kg/m3
333.15 K, 3020 kPa, x2 = 0.7021
  mass density: 724.44 ± 4.6 kg/m3
333.15 K, 4000 kPa, x2 = 0.7021
  mass density: 725.48 ± 4.7 kg/m3
333.15 K, 4010 kPa, x2 = 0.1231
  mass density: 690.19 ± 4.4 kg/m3
333.15 K, 4010 kPa, x2 = 0.2315
  mass density: 694.31 ± 4.5 kg/m3
333.15 K, 4010 kPa, x2 = 0.4272
  mass density: 703.48 ± 4.5 kg/m3
333.15 K, 4020 kPa, x2 = 0.3229
  mass density: 697.98 ± 4.5 kg/m3
333.15 K, 4020 kPa, x2 = 0.8941
  mass density: 751.17 ± 4.8 kg/m3
333.15 K, 5010 kPa, x2 = 0.2315
  mass density: 695.33 ± 4.5 kg/m3
333.15 K, 5010 kPa, x2 = 0.3229
  mass density: 699.01 ± 4.5 kg/m3
333.15 K, 5010 kPa, x2 = 0.4272
  mass density: 704.5 ± 4.5 kg/m3
333.15 K, 5010 kPa, x2 = 0.8941
  mass density: 752.16 ± 4.8 kg/m3
333.15 K, 5020 kPa, x2 = 0.1231
  mass density: 691.22 ± 4.4 kg/m3
333.15 K, 5020 kPa, x2 = 0.7021
  mass density: 726.49 ± 4.7 kg/m3
333.15 K, 6000 kPa, x2 = 0.7021
  mass density: 727.51 ± 4.7 kg/m3
333.15 K, 6000 kPa, x2 = 0.8941
  mass density: 753.15 ± 4.8 kg/m3
333.15 K, 6010 kPa, x2 = 0.2315
  mass density: 696.33 ± 4.5 kg/m3
333.15 K, 6010 kPa, x2 = 0.4272
  mass density: 705.51 ± 4.5 kg/m3
